Test system: patients with advanced HCC
Experiment: Safety: adverse events
Assay type: in vivo, human
Settings: for Abdominal pain (AE regardless of study drug relationship) / Acute kidney injury (AE regardless of study drug relationship) / Anemia (AE regardless of study drug relationship) / Ascites (AE regardless of study drug relationship) / Blood bilirubin increased (AE regardless of study drug relationship) / Blood creatinine increased (AE regardless of study drug relationship) / Constipation (AE regardless of study drug relationship) / Decreased appetite (AE regardless of study drug relationship) / Diarrhea (AE regardless of study drug relationship) / Fatigue (AE regardless of study drug relationship) / Hyperbilirubinemia (AE regardless of study drug relationship) / Hypoalbuminemia (AE regardless of study drug relationship) / Insomnia (AE regardless of study drug relationship) / Leukopenia (AE regardless of study drug relationship) / Nausea (AE regardless of study drug relationship) / Number of patients with at least one event (AE regardless of study drug relationship) / Peripheral edema (AE regardless of study drug relationship) / Platelet count decreased (AE regardless of study drug relationship) / Pyrexia (AE regardless of study drug relationship) / Vomiting (AE regardless of study drug relationship) / Weight decreased (AE regardless of study drug relationship) / ALT increased (AE regardless of study drug relationship) / AST increased (AE regardless of study drug relationship): patients n (%)
[1] = 600 mg capsule BID n = 27, All grades
[2] = 600 mg capsule BID n = 27, Grades 3/4
[3] = All patients n = 38, All grades
[4] = All patients n = 38, Grades 3/4
[5] = all patients (n = 38), all grades

CNC(=O)c1ccc(-c2cnc3ncc(Cc4ccc5ncccc5c4)n3n2)cc1F [capmatinib]
Abdominal pain (AE regardless of study drug relationship) [1]: 3 (11)
Acute kidney injury (AE regardless of study drug relationship) [1]: 2 (7)
Anemia (AE regardless of study drug relationship) [1]: 5 (19)
Ascites (AE regardless of study drug relationship) [1]: 4 (15)
Blood bilirubin increased (AE regardless of study drug relationship) [1]: 7 (26)
Blood creatinine increased (AE regardless of study drug relationship) [1]: 7 (26)
Constipation (AE regardless of study drug relationship) [1]: 6 (22)
Decreased appetite (AE regardless of study drug relationship) [1]: 9 (33)
Diarrhea (AE regardless of study drug relationship) [1]: 8 (30)
Fatigue (AE regardless of study drug relationship) [1]: 6 (22)
Hyperbilirubinemia (AE regardless of study drug relationship) [1]: 4 (15)
Hypoalbuminemia (AE regardless of study drug relationship) [1]: 6 (22)
Insomnia (AE regardless of study drug relationship) [1]: 5 (19)
Leukopenia (AE regardless of study drug relationship) [1]: 4 (15)
Nausea (AE regardless of study drug relationship) [1]: 9 (33)
Number of patients with at least one event (AE regardless of study drug relationship) [1]: 27 (100)
Peripheral edema (AE regardless of study drug relationship) [1]: 4 (15)
Platelet count decreased (AE regardless of study drug relationship) [1]: 4 (15)
Pyrexia (AE regardless of study drug relationship) [1]: 5 (19)
Vomiting (AE regardless of study drug relationship) [1]: 9 (33)
Weight decreased (AE regardless of study drug relationship) [1]: 2 (7)
ALT increased (AE regardless of study drug relationship) [2]: 1 (4)
AST increased (AE regardless of study drug relationship) [2]: 8 (30)
Abdominal pain (AE regardless of study drug relationship) [2]: 1 (4)
Acute kidney injury (AE regardless of study drug relationship) [2]: 1 (4)
Anemia (AE regardless of study drug relationship) [2]: 1 (4)
Ascites (AE regardless of study drug relationship) [2]: 1 (4)
Blood bilirubin increased (AE regardless of study drug relationship) [2]: 5 (19)
Blood creatinine increased (AE regardless of study drug relationship) [2]: 1 (4)
Constipation (AE regardless of study drug relationship) [2]: 0
Decreased appetite (AE regardless of study drug relationship) [2]: 1 (4)
Diarrhea (AE regardless of study drug relationship) [2]: 0
Fatigue (AE regardless of study drug relationship) [2]: 0
Hyperbilirubinemia (AE regardless of study drug relationship) [2]: 3 (11)
Hypoalbuminemia (AE regardless of study drug relationship) [2]: 0
Insomnia (AE regardless of study drug relationship) [2]: 0
Leukopenia (AE regardless of study drug relationship) [2]: 0
Nausea (AE regardless of study drug relationship) [2]: 1 (4)
Number of patients with at least one event (AE regardless of study drug relationship) [2]: 19 (70)
Peripheral edema (AE regardless of study drug relationship) [2]: 0
Platelet count decreased (AE regardless of study drug relationship) [2]: 0
Pyrexia (AE regardless of study drug relationship) [2]: 0
Vomiting (AE regardless of study drug relationship) [2]: 1 (4)
Weight decreased (AE regardless of study drug relationship) [2]: 0
patients with at least 1 dose reduction due to AEs (7/38 patients): 18%
ALT increased (AE regardless of study drug relationship) [3]: 7 (18)
AST increased (AE regardless of study drug relationship) [3]: 12 (32)
Abdominal pain (AE regardless of study drug relationship) [3]: 5 (13)
Acute kidney injury (AE regardless of study drug relationship) [3]: 4 (11)
Anemia (AE regardless of study drug relationship) [3]: 8 (21)
Ascites (AE regardless of study drug relationship) [3]: 5 (13)
Blood bilirubin increased (AE regardless of study drug relationship) [3]: 9 (24)
Blood creatinine increased (AE regardless of study drug relationship) [3]: 10 (26)
Constipation (AE regardless of study drug relationship) [3]: 9 (24)
Decreased appetite (AE regardless of study drug relationship) [3]: 12 (32)
Diarrhea (AE regardless of study drug relationship) [3]: 13 (34)
Fatigue (AE regardless of study drug relationship) [3]: 10 (26)
Hyperbilirubinemia (AE regardless of study drug relationship) [3]: 4 (11)
Hypoalbuminemia (AE regardless of study drug relationship) [3]: 8 (21)
Insomnia (AE regardless of study drug relationship) [3]: 7 (18)
Leukopenia (AE regardless of study drug relationship) [3]: 4 (11)
Nausea (AE regardless of study drug relationship) [3]: 16 (42)
Number of patients with at least one event (AE regardless of study drug relationship) [3]: 38 (100)
Peripheral edema (AE regardless of study drug relationship) [3]: 6 (16)
Platelet count decreased (AE regardless of study drug relationship) [3]: 4 (11)
Pyrexia (AE regardless of study drug relationship) [3]: 6 (16)
Vomiting (AE regardless of study drug relationship) [3]: 14 (37)
Weight decreased (AE regardless of study drug relationship) [3]: 4 (11)
ALT increased (AE regardless of study drug relationship) [4]: 2 (5)
AST increased (AE regardless of study drug relationship) [4]: 9 (24)
Abdominal pain (AE regardless of study drug relationship) [4]: 1 (3)
Acute kidney injury (AE regardless of study drug relationship) [4]: 2 (5)
Anemia (AE regardless of study drug relationship) [4]: 3 (8)
Ascites (AE regardless of study drug relationship) [4]: 1 (3)
Blood bilirubin increased (AE regardless of study drug relationship) [4]: 6 (16)
Blood creatinine increased (AE regardless of study drug relationship) [4]: 1 (3)
Constipation (AE regardless of study drug relationship) [4]: 0
Decreased appetite (AE regardless of study drug relationship) [4]: 1 (3)
Diarrhea (AE regardless of study drug relationship) [4]: 1 (3)
Fatigue (AE regardless of study drug relationship) [4]: 0
Hyperbilirubinemia (AE regardless of study drug relationship) [4]: 3 (8)
Hypoalbuminemia (AE regardless of study drug relationship) [4]: 1 (3)
Insomnia (AE regardless of study drug relationship) [4]: 0
Leukopenia (AE regardless of study drug relationship) [4]: 0
Nausea (AE regardless of study drug relationship) [4]: 1 (3)
Number of patients with at least one event (AE regardless of study drug relationship) [4]: 25 (66)
Peripheral edema (AE regardless of study drug relationship) [4]: 0
Platelet count decreased (AE regardless of study drug relationship) [4]: 0
Pyrexia (AE regardless of study drug relationship) [4]: 0
Vomiting (AE regardless of study drug relationship) [4]: 2 (5)
Weight decreased (AE regardless of study drug relationship) [4]: 0
diarrhea, AE regardless of causality [5]: 34%
nausea, AE regardless of causality [5]: 42%
vomiting, AE regardless of causality [5]: 37%
patients with AEs that led to discontinuation of capmatinib (all patients (n = 38), nine patients): 24%
tolerability (single agent, 600 mg BID capsules and 400 mg BID tablets): tolerable with a manageable safety profile
